{"source": "patent US12257238B2", "about": "“Magnesium biotinate compositions and methods of use” (Nutrition21, LLC, priority 2016, dated 2025)", "key": {"[1]": {"tested_on": "Liver cGMP", "test": "Liver cGMP in rats", "format": "in vivo, male Sprague-Dawley rats", "settings": "30 days, mean"}, "[2]": {"test": "in vivo", "settings": "male, Sprague-Dawley, rat, serum, oral"}, "[3]": {"test": "Absorption study in rats: serum, liver and brain biotin", "settings": "for Brain Biotin / Liver Biotin / Serum Biotin: 30 days, mean"}, "[4]": {"settings": "cited from earlier work"}, "[5]": {"test": "Stability of magnesium D-biotinate (storage, hygroscopicity, light)", "format": "physicochemical"}, "[6]": {"test": "Solubility of magnesium D-biotinate", "settings": "for Solubility in water: compared with biotin"}, "[7]": {"settings": "1 mg/kg body weight, listed as B, 1 mg/kg"}, "[8]": {"settings": "100 mg/kg body weight, listed as B, 100 mg/kg"}, "[9]": {"settings": "0.01 mg/kg body weight, listed as MgB, 0.01 mg/kg"}, "[10]": {"settings": "1 mg/kg body weight, listed as MgB, 1 mg/kg"}, "[11]": {"settings": "100 mg/kg body weight, listed as MgB, 100 mg/kg"}}, "note": "Read-outs that look alike come from different tables or passages of the source."}
{"smiles": "O=C(O)CCCC[C@@H]1SC[C@@H]2NC(=O)N[C@@H]21", "note": "[Biotin, D-biotin]", "values": [{"measurement": "Liver cGMP", "setting": "[1]; 0.01 mg/kg body weight", "value": 8.46, "unit": "pmol/mg protein"}, {"measurement": "Liver cGMP", "setting": "[1]; 1 mg/kg body weight", "value": 12.01, "unit": "pmol/mg protein"}, {"measurement": "Liver cGMP", "setting": "[1]; 100 mg/kg body weight", "value": 14.68, "unit": "pmol/mg protein"}, {"measurement": "concentration at 30 days", "setting": "[2]; 0.01 mg/kg", "value": 23.6, "unit": "nM"}, {"measurement": "concentration at 30 days", "setting": "[2]; 1 mg/kg", "value": 137, "unit": "nM"}, {"measurement": "concentration at 30 days", "setting": "[2]; 100 mg/kg", "value": 3520, "unit": "nM"}, {"measurement": "Brain Biotin", "setting": "[3]; 0.01 mg/kg body weight", "value": 0.14, "unit": "nmol/g"}, {"measurement": "Liver Biotin", "setting": "[3]; 0.01 mg/kg body weight, listed as B, 0.01 mg/kg", "value": 0.02, "unit": "nmol/g"}, {"measurement": "Brain Biotin", "setting": "[3]; [7]", "value": 0.42, "unit": "nmol/g"}, {"measurement": "Liver Biotin", "setting": "[3]; [7]", "value": 0.56, "unit": "nmol/g"}, {"measurement": "Brain Biotin", "setting": "[3]; [8]", "value": 1.37, "unit": "nmol/g"}, {"measurement": "Liver Biotin", "setting": "[3]; [8]", "value": 1.38, "unit": "nmol/g"}, {"measurement": "Solubility", "setting": "[4]; Benzene", "value": "Soluble"}, {"measurement": "Solubility", "setting": "[4]; Dimethyl sulfoxide (DMSO)", "value": 4.9, "unit": "g/100 mL"}, {"measurement": "Solubility", "setting": "[4]; Ethanol", "value": 80, "unit": "mg/100 mL"}, {"measurement": "Solubility", "setting": "[4]; Methanol", "value": 80, "unit": "mg/100 mL"}, {"measurement": "Solubility", "setting": "[4]; N,N-Dimethylformamide (DMF)", "value": 170, "unit": "mg/100 mL"}, {"measurement": "Solubility", "setting": "[4]; N,N-dimethylformamide, Merck Index", "value": 1.7, "unit": "mg/mL"}, {"measurement": "Solubility", "setting": "[4]; Water", "value": 22, "unit": "mg/100 mL"}, {"measurement": "Solubility", "setting": "[4]; other common organic solvents, Merck Index", "value": "insoluble"}]}
{"smiles": "[O]=[Mg]", "note": "[MgO, magnesium oxide]", "values": [{"measurement": "Solubility", "setting": "[4]; Benzene", "value": "salts insoluble"}, {"measurement": "Solubility", "setting": "[4]; Dimethyl sulfoxide (DMSO)", "value": "MgO insoluble;"}, {"measurement": "Solubility", "setting": "[4]; Ethanol", "value": "MgO insoluble;"}, {"measurement": "Solubility", "setting": "[4]; Methanol", "value": "MgO insoluble;"}, {"measurement": "Solubility", "setting": "[4]; N,N-Dimethylformamide (DMF)", "value": "MgO insoluble;"}, {"measurement": "Solubility", "setting": "[4]; Water", "value": "MgO insoluble;"}]}
{"smiles": "O=C(O)CCCC[C@@H]1SC[C@@H]2NC(=O)N[C@@H]21", "note": "[magnesium D-biotinate]", "values": [{"measurement": "Storage stability", "setting": "[5]; 30 days at 40% relative humidity and 25° C.", "value": "stable"}, {"measurement": "Storage stability", "setting": "[5]; 30 days at 40% relative humidity and 25° C., listed as Magnesium biotinate", "value": "no signs of degradation"}, {"measurement": "Storage stability", "setting": "[5]; 30 days at 75% relative humidity and 40° C.", "value": "stable"}, {"measurement": "Storage stability", "setting": "[5]; 30 days at 75% relative humidity and 40° C., listed as Magnesium biotinate", "value": "no signs of degradation"}, {"measurement": "Stability on exposure to light", "setting": "[5]; amorphous solid", "value": "stable upon exposure to light"}, {"measurement": "Hygroscopicity", "setting": "[5]; amorphous solid, as measured by weight", "value": "not hygroscopic"}, {"measurement": "Stability on exposure to light", "setting": "[5]; amorphous solid, listed as Magnesium biotinate", "value": "did not change color"}, {"measurement": "Storage stability", "setting": "[5]; room temperature", "value": "stable"}, {"measurement": "Liver cGMP", "setting": "[1]; 0.01 mg/kg body weight", "value": 8.60, "unit": "pmol/mg protein"}, {"measurement": "Liver cGMP", "setting": "[1]; 1 mg/kg body weight", "value": 13.04, "unit": "pmol/mg protein"}, {"measurement": "Liver cGMP", "setting": "[1]; 100 mg/kg body weight", "value": 17.07, "unit": "pmol/mg protein"}, {"measurement": "Solubility", "setting": "[6]; Water", "value": "~10000", "unit": "µg/mL"}, {"measurement": "Solubility", "setting": "[6]; water", "value": "≥ 10000", "unit": "µg/mL"}, {"measurement": "Solubility in water", "setting": "[6]; water", "value": "unexpectedly soluble in water"}, {"measurement": "Solubility in water", "setting": "[6]; water, listed as magnesium biotinate", "value": "significantly improved solubility"}, {"measurement": "Liver Biotin", "setting": "[3]; [9]", "value": 0.03, "unit": "nmol/g"}, {"measurement": "Serum Biotin", "setting": "[3]; [9]", "value": 23.41, "unit": "nmol/L"}, {"measurement": "Brain Biotin", "setting": "[3]; [10]", "value": 0.66, "unit": "nmol/g"}, {"measurement": "Liver Biotin", "setting": "[3]; [10]", "value": 0.71, "unit": "nmol/g"}, {"measurement": "Serum Biotin", "setting": "[3]; [10]", "value": 171.13, "unit": "nmol/L"}, {"measurement": "Brain Biotin", "setting": "[3]; [11]", "value": 1.65, "unit": "nmol/g"}, {"measurement": "Liver Biotin", "setting": "[3]; [11]", "value": 1.62, "unit": "nmol/g"}, {"measurement": "Serum Biotin", "setting": "[3]; [11]", "value": 5161.43, "unit": "nmol/L"}, {"measurement": "Absorption", "setting": "[3]; compared to biotin", "value": "higher absorption"}]}
